Measurements: patent publication US10112941B2, “Tricyclic compounds as anticancer agents” (BRISTOL-MYERS SQUIBB COMPANY, priority 2013, dated 2018)
pIC50: −log10 of the molar value.

Target: BRD4 (Homo sapiens, UniProt O60885)
Test: Time Resolved Fluorescence Resonance Energy Transfer (TR-FRET) binding assay, BRD4
Conditions: one of the FRET assays described; read-out: FRET BRD4 IC50

Compound	pIC50
Cc1nnn(C)c1-c1cnc2c3c(F)cc(C(C)(C)O)cc3n(C(c3ccc(F)cc3F)C3CCOCC3)c2c1 (single isomer, unassigned) [Example 110, 2-{5-[(2,4-Difluorophenyl)(oxan-4-yl)methyl]-3-(dimethyl-1H-1,2,3-triazol-5-yl)-9-fluoro-5H-pyrido[3,2-b]indol-7-yl}propan-2-ol]	> 8.30
Cc1nnn(C)c1-c1cnc2c3c(S(C)(=O)=O)cccc3n(C(c3c(F)cc(F)cc3F)C3CCOCC3)c2c1 (single isomer, unassigned) [Example 118, 5-{9-Methanesulfonyl-5-[oxan-4-yl(2,4,6-trifluorophenyl)methyl]-5H-pyrido[3,2-b]indol-3-yl}-1,4-dimethyl-1H-1,2,3-triazole]	> 8.30
COc1cc(C(C)(C)O)cc2c1c1ncc(-c3c(C)nnn3C)cc1n2C(c1ccccc1F)C1CCOCC1 (single isomer, unassigned) [Example 138, 2-[3-(Dimethyl-1H-1,2,3-triazol-5-yl)-5-[(2-fluorophenyl)(oxan-4-yl)methyl]-9-methoxy-5H-pyrido[3,2-b]indol-7-yl]propan-2-ol]	> 8.30
Cc1noc(C)c1-c1cnc2c3ccc(C(C)(C)O)cc3n(C(C3CCC3)C3CCC3)c2c1 [Example 31, 2-[5-(Dicyclobutylmethyl)-3-(dimethyl-1,2-oxazol-4-yl)-5H-pyrido[3,2-b]indol-7-yl]propan-2-ol]	> 8.30
[2H]C([2H])([2H])c1nnn(C)c1-c1cnc2c3ccc(C(C)(C)O)cc3n(C(c3ncccc3Cl)C3CCOCC3)c2c1 (single isomer, unassigned) [Example 322]	> 8.30
Cc1noc(C)c1-c1cnc2c3ccc(C(C)(C)O)cc3n([C@@H](CCC(F)(F)F)c3ccccc3Cl)c2c1 [Example 86]	> 8.30
[2H]C([2H])([2H])c1nnn(C)c1-c1cnc2c3ccc(C(C)(C)O)cc3n(C(c3ncccc3Cl)C3CCOCC3)c2c1 (single isomer, unassigned) [Example 321]	> 8.30
Cc1noc(C)c1-c1cnc2c3ccc(C(C)(C)O)cc3n(C(c3ccccc3F)C3CCOCC3)c2c1 (single isomer, unassigned) [Example 150, 2-[3-(Dimethyl-1,2-oxazol-4-yl)-5-[(2-fluorophenyl)(oxan-4-yl)methyl]-5H-pyrido[3,2-b]indol-7-yl]propan-2-ol]	> 8.30
[2H]C([2H])([2H])c1nnn(C)c1-c1cnc2c3ccc(C(C)(C)O)c(Cl)c3n([C@H](c3ccccc3)C3CCOCC3)c2c1 [Example 393, 2-{6-Chloro-3-[4-(^2H3)methyl-1-methyl-1H-1,2,3-triazol-5-yl]-5-[(S)-oxan-4-yl(phenyl)methyl]-5H-pyrido[3,2-b]indol-7-yl}propan-2-ol]	> 8.30
[2H]C([2H])([2H])c1nnn(C)c1-c1cnc2c3c(OC)cc(C(C)(C)O)cc3n(C(c3ccncc3F)C3CCOCC3)c2c1 (stereo not drawn) [Example 348, 2-{5-[(3-Fluoropyridin-4-yl)(oxan-4-yl)methyl]-9-methoxy-3-[4-(^2H3)methyl-1-methyl-1H-1,2,3-triazol-5-yl]-5H-pyrido[3,2-b]indol-7-yl}propan-2-ol]	> 8.30
Cc1noc(C)c1-c1cnc2c3ccc(C(C)(C)O)cc3n(C(c3ccccc3)C3(F)CCC3)c2c1 (single isomer, unassigned) [Example 32, 2-[3-(Dimethyl-1,2-oxazol-4-yl)-5-[(1-fluorocyclobutyl)(phenyl)methyl]-5H-pyrido[3,2-b]indol-7-yl]propan-2-ol]	> 8.30
Cc1nnn(C)c1-c1cnc2c3ccc(CC(C)(C)O)cc3n([C@H](c3ccc(F)cc3)C3CCOCC3)c2c1 [Example 256, 1-[3-(Dimethyl-1H-1,2,3-triazol-5-yl)-5-[(S)-(4-fluorophenyl)(oxan-4-yl)methyl]-5H-pyrido[3,2-b]indol-7-yl]-2-methylpropan-2-ol]	> 8.30
